In ChEMBL document CHEMBL1201862, “PubChem BioAssay data set” (2004):
Calls of active or inactive are those of the source.

Tests used:
HEK293 [1] = assay: cells; conditions: Homo sapiens
HEK293 [2] = assay: cells; conditions: Homo sapiens; remark: listed apart in the source
[3] = THP-1 cell cytotoxicity, dose response, cytotoxicity control for non-replicating M. tuberculosis project (AID 489025); assay type: functional
[4] = Vero E6 cell cytotoxicity, dose response, cytotoxicity control for non-replicating M. tuberculosis project, secondary assay (AID 492998); assay type: functional, VeroE6; conditions: Vero C1008
Beta-galactosidase [5] = target: T1, Beta-galactosidase (Escherichia coli, UniProt Q8VNN2); assay: PubChem AID 485352; assay type: functional
[6] = target: T2, Delta-type opioid receptor (Homo sapiens, UniProt P41143); assay: HTS Image-Based Screen for Antagonists of the DOR Receptor. [Related pubchem assays (depositor defined):AID1777, AID1785, AID1786, AID2133]; assay type: functional
Mu-type opioid receptor = Mu-type opioid receptor (Homo sapiens, UniProt P35372); assay: HTS Image-Based Screen for Agonists of the MOR Receptor. [Related pubchem assays (depositor defined):AID1777, AID1785, AID1786, AID2133]; assay type: functional;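 note: imaging of beta-arrestin GFP recruitment into spots after receptor activation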
Beta-galactosidase [7] = target: T1, Beta-galactosidase; assay type: functional
[8] = target: T3, Kappa-type opioid receptor (Homo sapiens, UniProt P41145); assay type: functional
[9] = microbe, parasite or virus in culture; assay type: functional; conditions: Mycobacterium tuberculosis
[10] = target: T2, Delta-type opioid receptor; assay: HTS Image-Based Screen for Agonists of the DOR Receptor. [Related pubchem assays (depositor defined):AID1777, AID1786, AID2133]; assay type: functional
[11] = HepG2 cell cytotoxicity, dose response, cytotoxicity control for non-replicating M. tuberculosis project (AID 489018); assay type: functional; conditions: Mycobacterium tuberculosis
[12] = target: T3, Kappa-type opioid receptor; assay type: functional; remark: listed apart in the source
INS1 = assay: beta cell apoptosis inhibitors, cytokine rescue, dose response, luminescence, retest (AID 449756); assay type: functional, cell-based; conditions: Rattus norvegicus;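 note: cell death triggered by IL-1 beta plus TNF-alpha plus IFN-gamma mixture; protective hits raise ATP signal compared with cytokine alone wells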
[13] = target: T4, Type-1 angiotensin II receptor (Homo sapiens, UniProt P30556); assay: AT1 receptor antagonists, dose response, selectivity assay for APJ receptor antagonist project, cell-based, uHTS hits (AID 463214); assay type: functional;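 note: antagonist potency against angiotensin II stimulated AT1 response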
T4 sequence (P30556 whole entry): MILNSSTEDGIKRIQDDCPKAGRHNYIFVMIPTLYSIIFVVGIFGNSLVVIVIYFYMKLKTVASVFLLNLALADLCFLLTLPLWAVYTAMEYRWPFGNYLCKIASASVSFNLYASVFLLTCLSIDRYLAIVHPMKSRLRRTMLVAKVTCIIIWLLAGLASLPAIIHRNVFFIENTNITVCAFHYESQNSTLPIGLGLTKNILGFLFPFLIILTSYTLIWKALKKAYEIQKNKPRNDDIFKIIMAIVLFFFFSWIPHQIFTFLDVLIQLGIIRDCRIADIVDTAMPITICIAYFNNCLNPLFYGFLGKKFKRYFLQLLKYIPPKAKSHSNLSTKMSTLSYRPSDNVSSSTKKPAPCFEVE

cells = assay type: functional
[14] = Luminescence Cell-Based Dose Retest to Confirm Inhibitors of Cancer Stem Cells. [Related pubchem assays (depositor defined):AID2717, AID2721]; assay type: functional; conditions: Homo sapiens
[15] = cytotoxicity in HMLE control line with eGFP shRNA, dose response, counter-screen for HMLE_sh_ECad selective toxicity project, cell-based, HMLE_sh_eGFP, luminescence (AID 463074); assay type: functional, Homo sapiens;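 note: HMLE human mammary epithelial cells expressing control shRNA against eGFP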
[16] = target: Intestinal-type alkaline phosphatase (Homo sapiens, UniProt P09923); assay: inhibition of human intestinal alkaline phosphatase – biochemical, dose response (AID 488876); assay type: functional
[17] = target: Intestinal-type alkaline phosphatase (Mus musculus, UniProt P24822); assay: PubChem AID 488785; assay type: functional
Streptokinase A = target: T5, Streptokinase A (Streptococcus pyogenes serotype M1, UniProt P10520); assay: S. pyogenes streptokinase expression inhibitors, potency, dose response, plasminogen activation absorbance, OD405 (AID 1914); assay type: functional, Streptococcus pyogenes M1 GAS;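 note: secreted streptokinase activity via plasminogen activation per viability signal from cell pellet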
T5 sequence (P10520 whole entry): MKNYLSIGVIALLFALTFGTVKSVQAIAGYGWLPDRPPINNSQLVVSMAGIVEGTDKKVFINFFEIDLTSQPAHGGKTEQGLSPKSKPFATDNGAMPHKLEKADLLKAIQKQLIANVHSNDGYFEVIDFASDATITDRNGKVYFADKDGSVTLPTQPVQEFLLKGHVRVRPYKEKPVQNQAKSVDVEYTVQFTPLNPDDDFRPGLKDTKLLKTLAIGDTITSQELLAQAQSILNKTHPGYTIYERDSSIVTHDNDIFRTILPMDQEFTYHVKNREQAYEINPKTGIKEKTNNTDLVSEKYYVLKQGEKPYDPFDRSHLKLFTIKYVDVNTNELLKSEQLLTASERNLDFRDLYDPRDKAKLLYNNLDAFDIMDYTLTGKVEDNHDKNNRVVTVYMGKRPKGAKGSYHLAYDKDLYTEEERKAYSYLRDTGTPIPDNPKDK

[18] = target: T6, Alkaline phosphatase, tissue-nonspecific isozyme (Homo sapiens, UniProt P05186); assay: TNAP enzyme inhibition by screening hits, dose response, selectivity assay for mouse IAP inhibitor project, biochemical, human TNAP, uHTS hits (AID 488906); assay type: functional
T6 sequence (P05186 whole entry): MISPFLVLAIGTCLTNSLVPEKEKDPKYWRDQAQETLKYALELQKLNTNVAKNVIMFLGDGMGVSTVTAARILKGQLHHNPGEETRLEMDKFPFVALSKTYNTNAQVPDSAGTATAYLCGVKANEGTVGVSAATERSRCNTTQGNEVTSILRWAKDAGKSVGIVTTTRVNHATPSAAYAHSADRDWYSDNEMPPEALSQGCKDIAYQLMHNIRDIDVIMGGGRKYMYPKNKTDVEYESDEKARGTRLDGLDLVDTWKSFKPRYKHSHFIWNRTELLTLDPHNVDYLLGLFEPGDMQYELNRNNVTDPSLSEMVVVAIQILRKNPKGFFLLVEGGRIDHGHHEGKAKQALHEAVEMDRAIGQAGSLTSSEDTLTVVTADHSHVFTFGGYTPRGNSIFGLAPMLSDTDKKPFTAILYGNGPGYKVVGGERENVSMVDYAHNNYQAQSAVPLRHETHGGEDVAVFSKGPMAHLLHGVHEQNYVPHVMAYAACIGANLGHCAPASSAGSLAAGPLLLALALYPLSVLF

[19] = inhibitors of intracellular T. cruzi replication, confirmation, NIH3T3 host cells, beta-gal luminescence (AID 2044); assay type: functional, cell-based;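 note: intracellular parasites grown in NIH/3T3 mouse fibroblasts as host cells; luminescent beta-galactosidase reporter signal from transgenic T. cruzi replicating inside host cells; inhibitors lower the luminescence signal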
[20] = target: T7, DNA repair protein RAD52 homolog (Homo sapiens, UniProt P43351); assay type: functional, biochemical
T7 sequence (P43351 whole entry): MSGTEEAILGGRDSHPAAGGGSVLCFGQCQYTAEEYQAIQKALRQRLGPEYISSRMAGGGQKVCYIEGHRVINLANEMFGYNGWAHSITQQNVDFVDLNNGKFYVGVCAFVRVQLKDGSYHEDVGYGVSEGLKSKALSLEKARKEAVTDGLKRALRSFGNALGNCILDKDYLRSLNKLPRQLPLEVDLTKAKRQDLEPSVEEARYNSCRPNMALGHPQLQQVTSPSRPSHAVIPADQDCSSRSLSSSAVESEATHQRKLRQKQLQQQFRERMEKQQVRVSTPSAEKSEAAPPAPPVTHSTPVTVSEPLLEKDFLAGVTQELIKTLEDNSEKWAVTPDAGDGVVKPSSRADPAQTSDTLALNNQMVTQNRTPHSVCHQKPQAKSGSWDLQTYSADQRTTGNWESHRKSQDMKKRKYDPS

[21] = cytotoxicity toward NIH3T3 fibroblasts, dose response, counter-screen, cell-based, ATP luminescence, mouse fibroblasts (AID 2010); assay type: functional; conditions: NIH3T3;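 note: cells exposed to compound for about 90 hours before reading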
[22] = target: T8, Ubiquitin-conjugating enzyme E2 N (Homo sapiens, UniProt P61088); assay type: functional;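 note: Dose-response confirmation in a TR-FRET assay detecting UBC13-driven polyubiquitin chain formation, inhibition measured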
T8 sequence (P61088 whole entry): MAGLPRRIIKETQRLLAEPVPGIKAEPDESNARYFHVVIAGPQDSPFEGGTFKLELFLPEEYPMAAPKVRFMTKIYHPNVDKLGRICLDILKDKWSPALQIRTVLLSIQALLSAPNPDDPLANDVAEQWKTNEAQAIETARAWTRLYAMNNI

Aspartyl aminopeptidase = target: T9, Aspartyl aminopeptidase (Plasmodium falciparum 3D7, UniProt Q8I2J3)
T9 sequence (Q8I2J3 whole entry): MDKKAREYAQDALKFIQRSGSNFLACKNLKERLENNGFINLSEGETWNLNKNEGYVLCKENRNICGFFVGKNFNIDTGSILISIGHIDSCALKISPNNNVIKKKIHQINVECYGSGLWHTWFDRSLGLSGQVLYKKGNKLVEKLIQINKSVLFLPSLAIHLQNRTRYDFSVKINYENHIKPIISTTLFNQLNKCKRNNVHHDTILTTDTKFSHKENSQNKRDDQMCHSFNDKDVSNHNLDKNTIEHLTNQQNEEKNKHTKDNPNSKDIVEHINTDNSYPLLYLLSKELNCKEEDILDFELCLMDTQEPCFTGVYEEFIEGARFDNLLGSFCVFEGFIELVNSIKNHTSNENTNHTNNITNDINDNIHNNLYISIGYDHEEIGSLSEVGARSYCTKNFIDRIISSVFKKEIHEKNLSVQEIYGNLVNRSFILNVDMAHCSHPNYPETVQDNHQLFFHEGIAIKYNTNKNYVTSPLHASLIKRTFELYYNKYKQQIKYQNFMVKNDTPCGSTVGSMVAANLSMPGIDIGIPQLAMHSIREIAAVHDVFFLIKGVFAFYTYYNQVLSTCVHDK

Bcl-2-like protein 10 = Bcl-2-like protein 10 (Homo sapiens, UniProt Q9HD36); assay: displacers of TR3 peptide from Bcl-B, primary screen, selectivity assay for Bfl-1 inhibitor project, biochemical, fluorescence polarization, FITC-TR3 peptide (AID 748);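 note: fluorescence polarization from a fluorescein-labelled TR3 peptide binding purified Bcl-B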
[23] = Artemis endonuclease inhibitor potency, dose response, biochemical, fluorescence intensity (AID 720701); assay type: functional;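 note: Artemis endonuclease enzyme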
[24] = HeLa cell cytotoxicity, dose response, cytotoxicity control for MgcRacGAP inhibitor project (AID 624300); assay type: functional
Procathepsin L = Procathepsin L (Homo sapiens, UniProt P07711)
[25] = target: T10, Rac GTPase-activating protein 1 (Homo sapiens, UniProt Q9H0H5); assay: MgcRacGAP GTPase-activating activity inhibitors, confirmation, biochemical, ADP Hunter fluorescence, primary and confirmatory (AID 624330); assay type: functional
T10 sequence (Q9H0H5 whole entry): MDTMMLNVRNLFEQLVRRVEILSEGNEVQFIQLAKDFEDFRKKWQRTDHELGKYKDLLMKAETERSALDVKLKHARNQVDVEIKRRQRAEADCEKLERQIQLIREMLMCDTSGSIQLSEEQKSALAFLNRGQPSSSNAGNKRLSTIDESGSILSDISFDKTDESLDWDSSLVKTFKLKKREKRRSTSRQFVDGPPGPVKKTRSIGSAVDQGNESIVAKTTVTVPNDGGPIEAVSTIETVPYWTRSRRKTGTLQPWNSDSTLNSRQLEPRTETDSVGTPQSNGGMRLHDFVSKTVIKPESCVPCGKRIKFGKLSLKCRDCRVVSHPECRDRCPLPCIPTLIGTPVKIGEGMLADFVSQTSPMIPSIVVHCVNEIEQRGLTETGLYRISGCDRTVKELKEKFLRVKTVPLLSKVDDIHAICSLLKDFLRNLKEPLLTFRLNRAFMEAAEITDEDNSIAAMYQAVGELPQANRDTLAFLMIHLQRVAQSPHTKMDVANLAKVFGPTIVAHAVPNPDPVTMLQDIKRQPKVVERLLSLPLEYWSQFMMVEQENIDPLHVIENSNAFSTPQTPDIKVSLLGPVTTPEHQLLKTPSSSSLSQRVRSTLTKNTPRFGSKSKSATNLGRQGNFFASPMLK

Intestinal-type alkaline phosphatase (Mus musculus, UniProt P24822), sequence (P24822 whole entry): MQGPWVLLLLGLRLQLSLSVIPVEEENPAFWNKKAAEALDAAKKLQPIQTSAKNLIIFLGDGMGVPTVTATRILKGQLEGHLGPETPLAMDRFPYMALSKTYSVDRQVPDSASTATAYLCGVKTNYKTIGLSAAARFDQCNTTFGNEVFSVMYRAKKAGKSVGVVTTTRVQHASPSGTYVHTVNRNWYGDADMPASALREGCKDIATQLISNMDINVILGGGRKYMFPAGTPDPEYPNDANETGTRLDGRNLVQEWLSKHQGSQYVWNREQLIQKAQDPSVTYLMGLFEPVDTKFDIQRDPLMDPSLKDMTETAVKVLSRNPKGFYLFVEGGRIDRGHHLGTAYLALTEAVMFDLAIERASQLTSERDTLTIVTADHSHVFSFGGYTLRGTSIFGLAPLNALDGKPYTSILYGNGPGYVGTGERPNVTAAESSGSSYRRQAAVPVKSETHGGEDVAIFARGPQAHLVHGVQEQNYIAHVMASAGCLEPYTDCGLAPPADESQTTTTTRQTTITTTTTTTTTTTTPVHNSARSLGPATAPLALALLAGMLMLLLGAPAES
T1 sequence (Q8VNN2 whole entry): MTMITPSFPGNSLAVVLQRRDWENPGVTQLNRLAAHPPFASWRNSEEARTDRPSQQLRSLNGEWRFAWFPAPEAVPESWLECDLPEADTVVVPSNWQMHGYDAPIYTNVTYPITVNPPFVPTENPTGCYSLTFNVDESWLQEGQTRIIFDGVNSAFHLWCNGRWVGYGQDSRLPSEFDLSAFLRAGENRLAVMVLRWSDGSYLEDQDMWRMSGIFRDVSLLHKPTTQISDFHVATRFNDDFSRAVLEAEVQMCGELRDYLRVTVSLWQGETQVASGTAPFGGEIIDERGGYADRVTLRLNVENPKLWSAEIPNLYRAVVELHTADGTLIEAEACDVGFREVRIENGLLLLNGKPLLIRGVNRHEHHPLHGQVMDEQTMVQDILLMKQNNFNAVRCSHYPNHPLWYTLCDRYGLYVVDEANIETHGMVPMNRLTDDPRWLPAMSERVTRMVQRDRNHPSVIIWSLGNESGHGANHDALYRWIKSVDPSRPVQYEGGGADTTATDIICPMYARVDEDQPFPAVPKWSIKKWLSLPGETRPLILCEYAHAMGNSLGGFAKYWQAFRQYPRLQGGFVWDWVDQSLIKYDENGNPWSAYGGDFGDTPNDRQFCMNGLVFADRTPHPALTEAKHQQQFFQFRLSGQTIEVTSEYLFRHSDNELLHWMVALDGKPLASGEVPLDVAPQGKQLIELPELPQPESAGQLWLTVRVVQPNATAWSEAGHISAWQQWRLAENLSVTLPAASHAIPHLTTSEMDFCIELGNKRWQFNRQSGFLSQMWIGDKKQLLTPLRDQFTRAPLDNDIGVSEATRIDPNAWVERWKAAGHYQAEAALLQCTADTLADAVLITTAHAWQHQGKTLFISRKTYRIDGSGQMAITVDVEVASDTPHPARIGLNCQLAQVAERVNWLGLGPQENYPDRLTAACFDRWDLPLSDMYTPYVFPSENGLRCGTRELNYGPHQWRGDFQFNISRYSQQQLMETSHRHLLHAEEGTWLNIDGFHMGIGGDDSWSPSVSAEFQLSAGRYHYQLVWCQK
Intestinal-type alkaline phosphatase (Homo sapiens, UniProt P09923), sequence (P09923 whole entry): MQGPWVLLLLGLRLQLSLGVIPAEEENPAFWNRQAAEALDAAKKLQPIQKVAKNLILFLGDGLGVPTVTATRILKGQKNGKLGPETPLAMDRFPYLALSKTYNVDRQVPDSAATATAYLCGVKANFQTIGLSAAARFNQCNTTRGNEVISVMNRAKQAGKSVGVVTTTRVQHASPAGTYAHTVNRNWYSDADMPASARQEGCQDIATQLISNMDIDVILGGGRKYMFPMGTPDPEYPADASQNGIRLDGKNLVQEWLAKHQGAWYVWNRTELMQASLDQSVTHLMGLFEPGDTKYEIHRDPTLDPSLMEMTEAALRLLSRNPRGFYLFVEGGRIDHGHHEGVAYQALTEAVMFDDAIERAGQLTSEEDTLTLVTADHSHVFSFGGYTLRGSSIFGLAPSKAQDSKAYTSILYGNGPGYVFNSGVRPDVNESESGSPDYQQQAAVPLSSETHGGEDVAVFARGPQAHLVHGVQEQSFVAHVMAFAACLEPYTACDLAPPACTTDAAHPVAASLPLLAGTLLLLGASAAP
T3 sequence (P41145 whole entry): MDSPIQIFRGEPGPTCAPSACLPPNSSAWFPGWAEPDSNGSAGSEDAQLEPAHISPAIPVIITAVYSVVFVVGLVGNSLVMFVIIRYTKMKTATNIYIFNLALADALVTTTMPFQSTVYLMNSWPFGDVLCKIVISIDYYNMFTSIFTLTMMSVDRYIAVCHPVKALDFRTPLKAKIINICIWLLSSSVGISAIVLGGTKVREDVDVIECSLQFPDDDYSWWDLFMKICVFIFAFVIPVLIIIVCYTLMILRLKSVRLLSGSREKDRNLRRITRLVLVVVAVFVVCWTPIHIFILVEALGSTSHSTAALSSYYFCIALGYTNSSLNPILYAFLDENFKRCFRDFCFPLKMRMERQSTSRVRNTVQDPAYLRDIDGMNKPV
T2 sequence (P41143 whole entry): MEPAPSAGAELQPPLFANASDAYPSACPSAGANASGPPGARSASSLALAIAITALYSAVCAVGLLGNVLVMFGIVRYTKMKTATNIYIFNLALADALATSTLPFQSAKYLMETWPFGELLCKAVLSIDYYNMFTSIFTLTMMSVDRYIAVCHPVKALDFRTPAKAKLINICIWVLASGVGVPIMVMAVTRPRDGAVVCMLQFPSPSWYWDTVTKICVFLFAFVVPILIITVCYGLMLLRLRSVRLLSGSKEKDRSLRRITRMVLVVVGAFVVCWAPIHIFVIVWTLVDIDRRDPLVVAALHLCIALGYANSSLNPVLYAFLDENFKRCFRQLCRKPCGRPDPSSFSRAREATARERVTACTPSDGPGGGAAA
Procathepsin L, sequence (P07711 whole entry): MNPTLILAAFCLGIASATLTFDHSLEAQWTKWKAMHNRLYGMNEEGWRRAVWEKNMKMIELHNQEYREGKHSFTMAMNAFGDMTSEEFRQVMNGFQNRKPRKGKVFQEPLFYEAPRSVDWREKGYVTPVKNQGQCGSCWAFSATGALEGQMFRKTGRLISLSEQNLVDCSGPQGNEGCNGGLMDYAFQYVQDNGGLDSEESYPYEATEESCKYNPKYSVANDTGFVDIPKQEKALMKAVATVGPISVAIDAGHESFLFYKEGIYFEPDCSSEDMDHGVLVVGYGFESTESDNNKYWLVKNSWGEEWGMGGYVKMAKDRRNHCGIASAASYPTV
Bcl-2-like protein 10, sequence (Q9HD36 whole entry): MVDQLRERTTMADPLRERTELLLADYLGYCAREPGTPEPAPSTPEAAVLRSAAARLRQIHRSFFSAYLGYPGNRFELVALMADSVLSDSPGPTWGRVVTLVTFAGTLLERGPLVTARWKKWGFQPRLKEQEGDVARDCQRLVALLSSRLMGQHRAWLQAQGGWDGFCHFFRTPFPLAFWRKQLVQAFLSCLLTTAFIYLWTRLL
Mu-type opioid receptor, sequence (P35372 whole entry): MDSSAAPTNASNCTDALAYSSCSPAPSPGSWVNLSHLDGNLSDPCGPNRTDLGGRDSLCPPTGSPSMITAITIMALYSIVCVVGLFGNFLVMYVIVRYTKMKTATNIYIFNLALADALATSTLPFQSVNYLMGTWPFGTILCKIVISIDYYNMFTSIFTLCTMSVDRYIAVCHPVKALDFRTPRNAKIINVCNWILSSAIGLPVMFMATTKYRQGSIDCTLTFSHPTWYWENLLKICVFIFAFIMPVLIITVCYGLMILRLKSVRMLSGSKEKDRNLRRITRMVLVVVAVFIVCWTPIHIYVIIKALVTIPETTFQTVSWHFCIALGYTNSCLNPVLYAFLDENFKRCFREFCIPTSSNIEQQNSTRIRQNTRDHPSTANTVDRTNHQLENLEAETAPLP

## C1COCCO1.CCOc1ccc(N2C(=O)CC(N(CCc3ccc(OC)c(OC)c3)C(S)=Nc3ccccc3)C2=O)cc1 (configuration not stated)
HEK293 [1]
  EC50: > 59.7 µM (inactive)
HEK293 [2]
  EC50: > 59.7 µM (inactive)

## O=C(NNC(=O)C12CC3CC(CC(C3)C1)C2)c1ccccn1
[3]
  CC50: 5.31 µM (active)
[4]
  CC50: 8.61 µM (active)
Beta-galactosidase [5]
  EC50: > 40 µM (inactive)
[6]
  IC50: > 32 µM (inactive)
Mu-type opioid receptor
  EC50: > 32 µM (inactive)
Beta-galactosidase [7]
  EC50: > 31.5 µM (inactive)
[8]
  IC50: > 32 µM
[9]
  CC50: 16.7 µM (active)
[10]
  EC50: > 32 µM (inactive)
[11]
  CC50: > 20 µM (active)
[12]
  IC50: 15 µM (active)
INS1
  AC50: 3.14 µM (active)
[13]
  IC50: 11.2 µM (active)
cells
  IC50: 9.85 µM (active)

## CN(c1ccccc1)S(=O)(=O)c1ccc(-c2ccccc2)cc1
[14]
  AC50: 2.66 µM (active)
[15]
  AC50: 62.2 µM (active)

## Cc1cc(Cl)ccc1NC(=S)NCCC(c1ccccc1)c1ccccc1
[16]
  IC50: > 100 µM (inactive)
[17]
  IC50: 7.04 µM (active)
Streptokinase A
  EC50: 48.5 µM (active)
[18]
  IC50: 80.1 µM (active)

## Cc1cc(N2CCN(C)CC2)nc2ccc(NC(=S)N3CCN(c4ccc(Cl)cc4)CC3)cc12
[19]
  EC50: 0.762 µM (active)
[20]
  AC50: 3.07 µM (active)
[21]
  EC50: 11.9 µM (active)
[14]
  AC50: 0.367 µM (active)
[22]
  IC50: > 20 µM (inactive)
[15]
  AC50: 184 µM (active)

## O=C(COc1ccccc1C(=O)N/N=C\c1ccc(O)c(O)c1)N/N=C/c1ccc(O)c(O)c1
Aspartyl aminopeptidase
  IC50: 1.5 µM (active)
[16]
  IC50: > 100 µM (inactive)
[17]
  IC50: 12.8 µM (active)
Bcl-2-like protein 10
  IC50: 1.07 µM (active)
[23]
  IC50: 1.91 µM (active)
[24]
  CC50: 100 µM (active)
Procathepsin L
  IC50: > 59.6 µM (not active)
[18]
  IC50: > 100 µM (inactive)
[25]
  IC50: 21.1 µM (active)
